{
  "source": "patent US10722575B2",
  "about": "“Use of 1,3-diphenylprop-2-en-1-one derivatives for treating liver disorders” (GENFIT, priority 2009, dated 2020)",
  "key": {"[1]": {"system": "patients suffering from atherogenic dyslipidaemia and abdominal obesity", "test": "First pilot double-blind placebo-controlled randomized study, Cpd 29 80 mg/day, 28 days", "type": "in vivo, human", "conditions": "80 mg/day oral", "description": "1-[4-methylthiophenyl]-3-[3,5-dimethyl-4-carboxydimethylmethyloxyphenyl]prop-2-en-1-one (Cpd 29 of WO 2004/005233) has been formulated as hard shell capsules containing 5, 10 or 20 mg of the compound. The compound (80 mg) was administered orally once daily for 28 days. The study has been performed in two parallel groups in double-blind conditions: placebo or Cpd 29 of WO 2004/005233.\nThe tolerability and safety of once-a-day administrations, as well as the efficacy in improving plasma lipids and glucose homeostasis compared with placebo, were evaluated in two pilot trials using relevant biochemical parameters. The data were used to calculate the percentage of change due to the compound when compared to the placebo after 28 days of treatment.\nA first pilot, double-blind, placebo controlled, randomized study has been performed in patients suffering from atherogenic dyslipidaemia and abdominal obesity for assessing the tolerability and safety of once-a-day administrations of oral doses of Cpd 29 of WO 2004/005233 (at the dose of 80 mg/day), as well as the efficacy on plasma triglycerides and HDL-cholesterol (primary objectives)."}, "ob/ob mice": {"system": "ob/ob mice", "test": "ob/ob mice, hepatic gene expression by quantitative RT-PCR after 26 days of treatment", "type": "in vivo", "conditions": "26 days daily gavage, Cpd 29 10 and 30 mg/kg/day, Fenofibrate 100 mg/kg/day, Rosiglitazone 10 mg/kg/day", "description": "The compounds of the General Formula (I) were tested in a murine model of type II diabetes, the ob/ob mice. Mice were daily orally treated with the Compound 29 of WO 2004/005233 at two different doses (10 and 30 mg/kg/day) and with the prototypical PPARalpha- and PPARgamma-specific reference compounds (Fenofibrate at 100 mg/kg/day and Rosiglitazone at 10 mg/kg/day respectively). After 26 days of treatment, animals were sacrificed and plasma samples and livers were harvested. Hepatic expression of genes that are known to be implicated in the liver inflammation process was evaluated and plasmatic levels of ALAT were measured (Panels A-C). […]\nMale ob/ob mice (8 weeks of age) were purchased from Charles River (L'Arbresle, France) and were kept on a 12-hour light/dark cycle at a constant temperature of 20±3° C. After a 1 week acclimation, mice were separated in groups of 8 animals selected such that the distribution of their body weight and their 6 hours fasting glycemia determined before the experiment were uniform. […]\nTotal RNA was isolated from frozen livers using the NucleoSpin® 96 RNA kit (Macherey Nagel), according to the manufacturer's instructions. […] Quantitative PCR was then carried out using the MyiQ Single-Color Real-Time PCR Detection System (Biorad). […]"}, "[2]": {"system": "hApoE2 KI/PPARalpha KO mice", "test": "hApoE2 KI/PPARalpha KO mice on Western diet, 2 weeks, histological scores of liver steatosis and intralobular inflammation", "type": "in vivo", "conditions": "30 mg/kg/day", "description": "Animals were fed a Western diet (20% saturated fat and 0.2% cholesterol, Harlan Teklad TD88137) during 2 weeks in the first study, that involved the daily administration of Cpd 29 (at 30 mg/kg/day by oral gavage), and during 6 weeks in the second study, that involved the daily administration of Compound 1 of WO 2007147879 (Cpd1, at 30 mg/kg/day by oral gavage). Control animals were treated with vehicle only (Carboxymethlycellulose 1%+Tween-80 0.1%). Animals had access to food and water ad libitum.\nAt the end of the studies, the animals were weighed and sacrificed under anesthesia. Blood was collected from the retro-orbital sinus; plasma was obtained by centrifugation (4 000 rpm, at 4° C. for 15 min) and subsequently frozen and stored at −20° C. Tissues and livers were isolated and snap-frozen in liquid nitrogen and stored at −80° C. for subsequent analysis (gene expression and biochemistry) or fixed in 4% paraformaldehyde for histology.\nFormalin-fixed liver tissue was processed, and 5-μm-thick paraffin sections were stained with Hematoxylin and Eosin. The histological analysis of stained liver sections was carried out in blind conditions to quantify liver steatosis and liver intralobular inflammation. Liver steatosis was scored from 0 to 3 as follows: 0 (very slightly affected), 1 (slightly affected), 2 (moderately affected), 3 (highly affected). Liver intralobular inflammation was also scored depending on the number of inflammatory foci counted by field of observation as follows: 0 (<1 focus/field), 1 (1 to 2 foci/field), 2 (2 to 4 foci/field) 3 (more than 4 foci/field).\nExemplary compounds of the General Formula (I) were tested in vivo in a high fat diet mice model. hApoE2 KI and hApoE2 KI/PPARalpha KO (“humanized” ApoE2 knock-in mice deficient for the mPPARalpha gene) were fed a Western diet and daily treated with the Cpd 29 at 30 mg/kg/day during 2 weeks. At the end of the protocol, liver steatosis and intra-lobular inflammation were evaluated in the control and treated mice by means of histological analysis and specific scores."}, "[3]": {"conditions": "relative to the placebo group, p<0.01"}, "[4]": {"conditions": "hApoE2 KI/PPARalpha KO mice, Western diet"}},
  "data": [
    {"substance": "1-[4-methylthiophenyl]-3-[3,5-dimethyl-4-carboxydimethylmethyloxyphenyl]prop-2-en-1-one [Cpd 29]", "values": [
      {"measurement": "effect on Homocystein (cardiovascular risk factor)", "setting": "[1]", "result": "lack of effect"},
      {"measurement": "reduction of Gamma Glutamyl transpeptidase level", "setting": "[1]; p<0.001", "result": 23, "unit": "%"},
      {"measurement": "liver acute phase inflammation marker fibrinogen", "setting": "[1]; p<0.01", "result": "reduction"},
      {"measurement": "liver acute phase inflammation marker haptoglobin", "setting": "[1]; p<0.01", "result": "reduction"},
      {"measurement": "reduction of Alanine aminotransferase level", "setting": "[1]; p<0.01", "result": 13, "unit": "%"},
      {"measurement": "increase in good cholesterol (HDL-C) level", "setting": "[1]; [3]", "result": 9, "unit": "%"},
      {"measurement": "reduction of plasma triglycerides", "setting": "[1]; [3]", "result": 21, "unit": "%"},
      {"measurement": "hepatic expression of TNFalpha", "setting": "ob/ob mice; FIG. 2A", "result": "inhibited the expression of this cytokine in a dose-response manner"},
      {"measurement": "hepatic expression level of TGFbeta", "setting": "ob/ob mice; FIG. 2B", "result": "inhibited the expression of this growth factor in a dose-response manner"},
      {"measurement": "development of liver inflammation induced by the diet", "setting": "[2]; [4]", "result": "inhibits"},
      {"measurement": "development of liver steatosis induced by the diet", "setting": "[2]; [4]", "result": "inhibits"},
      {"measurement": "Liver Inflammation (score) 0", "setting": "[2]; share of group with score 0 (<1 focus/field), hApoE2 KI/PPARalpha KO", "result": 67, "unit": "%"},
      {"measurement": "Liver Steatosis (score) 0", "setting": "[2]; share of group with score 0 (very slightly affected), hApoE2 KI/PPARalpha KO", "result": 0, "unit": "%"},
      {"measurement": "Liver Inflammation (score) 1", "setting": "[2]; share of group with score 1 (1 to 2 foci/field), hApoE2 KI/PPARalpha KO", "result": 17, "unit": "%"},
      {"measurement": "Liver Steatosis (score) 1", "setting": "[2]; share of group with score 1 (slightly affected), hApoE2 KI/PPARalpha KO", "result": 33, "unit": "%"},
      {"measurement": "Liver Inflammation (score) 2", "setting": "[2]; share of group with score 2 (2 to 4 foci/field), hApoE2 KI/PPARalpha KO", "result": 17, "unit": "%"},
      {"measurement": "Liver Steatosis (score) 2", "setting": "[2]; share of group with score 2 (moderately affected), hApoE2 KI/PPARalpha KO", "result": 50, "unit": "%"},
      {"measurement": "Liver Steatosis (score) 3", "setting": "[2]; share of group with score 3 (highly affected), hApoE2 KI/PPARalpha KO", "result": 17, "unit": "%"},
      {"measurement": "Liver Inflammation (score) 3", "setting": "[2]; share of group with score 3 (more than 4 foci/field), hApoE2 KI/PPARalpha KO", "result": 0, "unit": "%"}
    ]}
  ]
}
